Measured values reported in publication PMC8876114, “Cytotoxicity and anti-HIV activities of extracts of the twigs of Croton dichogamus Pax” (BMC Complementary Medicine and Therapies, 2022).
Values after ≈ are worked out from the molar mass of the structure shown. Like-named read-outs stand apart in the source and are kept apart here.

Assays:
[1] = system: Caco-2 human colon carcinoma cell lines; conditions: cited from earlier work
[2] = system: HIV-1IIIB laboratory-adapted strain; experiment: Anti-HIV activity test: prevention of HIV-1 cytopathic effect in MT-4 cells (MTT); assay type: cell-based, Human immunodeficiency virus type 1; conditions: for IC50: Human immunodeficiency virus 1, MT4, read-out: IC50 (50% antiviral effect concentration); for EmaxAV (maximum antiviral effect %): inhibition of viral-induced cytopathic effect, HIV-1IIIB in MT-4 cells; for SI (selectivity index): ratio of CC50 to IC50, MT-4 cells
Description: Human immunodeficiency virus type 1 (HIV-1) IIIB (also referred to as HTLV-IIIB) was obtained through the NIH HIV Reagent Program, Division of AIDS, NIAID, NIH: Human Immunodeficiency Virus-1 IIIB, ARP-398, contributed by Dr. Robert Gallo. The effects of the test compounds in preventing the cytopathic effect resulting from HIV-1 replication were evaluated by the MTT colorimetric assay described above.
The laboratory-adapted strain of human immunodeficiency virus type 1 (HIV-1IIIB) obtained from the National Institutes of Health HIV Reagent Program was used in this experiment. A total of 50 µl of different concentrations ([…]) of the test compounds were seeded into 96-well flat-bottomed microtiter culture plates containing HIV-infected MT-4 cells.

[3] = system: human T-lymphocytic MT-4 cells; assay type: cell-based; conditions: for CC50 (50% cytotoxic concentration): MT-4 cells, MTT, mean ± S.E.M; for MNTC (maximum nontoxic concentration): human
Description: In this study, human T-lymphocytic MT-4 cells (ARP-120) were obtained through the National Institute of Health (NIH) HIV Reagent Program, Division of AIDS, National Institute of Allergy, and Infectious Diseases (NIAID), NIH: MT-4 Cells, ARP-120, contributed by Dr. Douglas Richman. The cytotoxicity test was conducted to evaluate the plant extracts' safety by measuring cell death caused by the plant extracts. The assay was conducted using the MTT colorimetric assay as described previously.
Four solvent fractions of twigs of C. dichogamus were examined for their ability to inhibit HIV-1 replication. In addition, the in vitro toxicity of these extracts to human T-lymphocytic MT-4 cells was investigated by MTT assay. […] The average absorbance value from three replicate determinations was used to express the viability of the cells as a percentage of negative controls, and the CC50 for each plant extract was determined graphically by plotting the % growth inhibition (Emaxc) against the plant extract concentration.

HIV [4] = system: HIV; parameters: method as in PMID 8176401; conditions: cited from earlier work
HIV [5] = conditions: cell-based in vitro assay; literature report, no reference given; cited from earlier work
HIV [6] = system: HIV; parameters: method as in PMID 14980692; conditions: cited from earlier work
HL-60 = system: HL-60; parameters: method as in PMID 23103294; conditions: HL-60, MTT method; read-out: IC50 (cytotoxicity); cited from earlier work
A-549 = system: A-549; parameters: method as in PMID 23103294; conditions: A-549, MTT method; read-out: IC50 (cytotoxicity); cited from earlier work
SW-480 = system: SW-480; parameters: method as in PMID 23103294; conditions: SW-480, MTT method; read-out: IC50 (cytotoxicity); cited from earlier work
MCF-7 = system: MCF-7; parameters: method as in PMID 23103294; conditions: MCF-7, MTT method; read-out: IC50 (cytotoxicity); cited from earlier work
SMMC-7721 = system: SMMC-7721; parameters: method as in PMID 23103294; conditions: SMMC-7721, MTT method; read-out: IC50 (cytotoxicity); cited from earlier work
[7] = HIV-1IIIB-infected MT-4 cells, MTT, mean ± S.E.M

10-epi-manninsigin D
decrease of viability ([1]; Caco-2, at a concentration of 100 mM): 43%

Nc1nc(NC2CC2)c2ncn([C@H]3C=C[C@@H](CO)C3)c2n1 [ABC, abacavir]
IC50 [2, 7]: 0.05 ± 0.031 µg/mL (≈ 0.175 µM)
EmaxAV (maximum antiviral effect %) ([2]; mean ± S.E.M): 58.67 ± 0.43%
SI (selectivity index) [2]: 5.0
CC50 (50% cytotoxic concentration) [3]: 0.26 ± 0.00 µg/mL (≈ 0.908 µM)
MNTC (maximum nontoxic concentration) [3]: 0.18 ± 0.03 µg/mL

Cc1cn([C@H]2C[C@H](N=[N+]=[N-])[C@@H](CO)O2)c(=O)[nH]c1=O [AZT, zidovudine]
IC50 [2]: 0.002 µg/mL (≈ 0.00748 µM)
EmaxAV (maximum antiviral effect %) ([2]; mean ± S.E.M): 83.5 ± 0.57%
EmaxAV (maximum antiviral effect %) ([2]; mean ± S.E.M, listed as zidovudine): 83.5%

Cc1ccnc2c1NC(=O)c1cccnc1N2C1CC1 [NVP, nevirapine]
IC50 [2, 7]: 0.24 ± 0.09 µg/mL (≈ 0.901 µM)
EmaxAV (maximum antiviral effect %) ([2]; mean ± S.E.M): 72.53 ± 0.47%
SI (selectivity index) [2]: 3.5
CC50 (50% cytotoxic concentration) [3]: 0.82 ± 0.0 µg/mL (≈ 3.08 µM)
MNTC (maximum nontoxic concentration) [3]: 0.57 ± 0.0 µg/mL

C[C@H](Cn1cnc2c(N)ncnc21)OCP(=O)(O)O [TDF, tenofovir]
IC50 [2, 7]: 0.04 ± 0.01 µg/mL (≈ 0.139 µM)
EmaxAV (maximum antiviral effect %) ([2]; mean ± S.E.M): 80.55 ± 0.46%
CC50 (50% cytotoxic concentration) [3]: 6.73 ± 0.24 µg/mL (≈ 23.4 µM)
MNTC (maximum nontoxic concentration) [3]: 4.92 ± 0.71 µg/mL

C=C(C)[C@@H]1CC[C@]2(C(=O)O)CC[C@]3(C)[C@H](CC[C@@H]4[C@@]5(C)CC[C@H](O)C(C)(C)[C@@H]5CC[C@]43C)[C@@H]12 [betulinic acid]
anti-HIV activity (in words) (HIV [4]): exhibited anti-HIV activity

CC1=CC[C@]2(C)CC(=O)[C@]3(C)C(=O)C=C(C(C)C)[C@@H]3[C@H]2CC1 [cyanthiwigin B]
anti-HIV activity (in words) (HIV [5]): Moderate anti-HIV activity

CC1(C)CC[C@]2(C(=O)O)CC[C@]3(C)C(=CC[C@@H]4[C@@]5(C)CC[C@H](O)C(C)(C)[C@@H]5CC[C@]43C)[C@@H]2C1 [oleanolic acid]
anti-HIV activity (in words) (HIV [4]): exhibited anti-HIV activity

CC(=O)[C@@H]1CC[C@]2(C(=O)O)CC[C@]3(C)[C@H](CC[C@@H]4[C@@]5(C)CC[C@H](O)C(C)(C)[C@@H]5CC[C@]43C)[C@@H]12 [platanic acid]
anti-HIV activity (in words) (HIV [4]): exhibited anti-HIV activity

acetin
anti-HIV activity (in words) (HIV [6]): potent anti-HIV activity

furocrotinsulolide
cytotoxicity activity (in words) ([1]; Caco-2 cell line, at 30 μm): modest cytotoxicity activity

maninsigin D
IC50 (HL-60): > 40 µM
IC50 (A-549): > 40 µM
IC50 (SW-480): > 40 µM
IC50 (MCF-7): > 40 µM
IC50 (SMMC-7721): > 40 µM
